{"source": "patent US20240009174A1", "about": "“METHODS FOR DISRUPTING MITOCHONDRIAL UNFOLDED PROTEIN RESPONSE” (Health Research, Inc., priority 2020, published 2024)", "key": {"TKO PCa cells": {"tested_on": "TKO PCa cells", "assay": "mitoROS, mitoMass and apoptosis in TKO PCa cells", "type": "cell-based, mouse", "details": "data not shown", "description": "(§1) Identification of novel inhibitor of HSP60-ClpP interaction that disrupts UPR^mt function and induces PCa cell death. Having shown that two arms of UPR^mt, HSP60 chaperonin and ClpP protease interact and play critical role in PCa cell survival, an in silico analysis was performed and a small molecule library (developed by Enamine Ltd) was screened to identify drugs targeting the apical domain of HSP60 critical for its interaction with ClpP. 9 compounds (A-I) were identified and screened for their cell death inducing potential in PCa cells (data not shown). […] Colony forming ability of PCa cells was inhibited by DCEM1 treatment (data not shown)."}, "[1]": {"tested_on": "mitochondrial chaperonin activity in PCa cells", "assay": "Mitochondrial Chaperonin Activity Assay (MiCAA)", "type": "cell-based", "details": "24 h", "description": "FIG. 10. Mitochondrial Chaperonin Activity Assay (MiCAA). PCa cells were treated with either DCEM1 (A) or ETB or Mizoribine (B) for 24 h and mitochondrial (Mito) chaperonin activity was analyzed as described in material and methods. In another experiment, PCa cells were transfected with siRNA to target HSP60 mRNA and mitochondrial chaperonin activity was analyzed (C). In (A), the bars in each series from left to right are DMSO and DCEM1. In (B), the bars in each series from left to right are DMSO, ETB, and MZR. In (C), the bars in each series from left to right are siMock, siHSP60-1, and siHSP60-2.\nSince HSP60 chaperonin system is crucial for maintaining mitochondrial homeostasis in normal cells, a novel method, Mitochondrial Chaperonin Activity Assay (MiCAA), was developed to analyze chaperonin activity in live cells using flow cytometry to evaluate whether DCEM1 modulates mitochondrial chaperonin activity."}, "PCa cells": {"tested_on": "PCa cells", "assay": "Colony forming ability of PCa cells", "type": "cell-based", "details": "data not shown", "description": "as §1"}, "PC-3 cells": {"tested_on": "PC-3 cells", "assay": "Protein expression of nuclear encoded OXPHOS subunits", "type": "cell-based"}, "LNCaP and PC-3 cells": {"tested_on": "LNCaP and PC-3 cells", "assay": "mitoROS by flow cytometry using mitoSOX dye", "type": "cell-based", "description": "FIG. 6. Pharmacological inhibition of HSP60-ClpP interaction induces UPR^mt and PCa cell death. (A) Docking of DCEM1 into apical domain of HSP60. (B) LNCaP and PC-3 cells were treated with DCEM1 for 24 hours and HSP60-ClpP interaction was analyzed by co-immunoprecipitation assay. (C) LNCaP and PC-3 cells were treated with DCEM1 for 24 hours and mitoROS levels were analyzed by flow cytometry using mitoSOX dye. (D) LNCaP and PC-3 cells were treated with DCEM1 for 24 hours and poly-Ub protein levels were analyzed by western blotting. (E) LNCaP and PC-3 cells were treated with DCEM1 for 24 and 48 hours and apoptotic cell populations were analyzed by flow cytometry using Annexin V FITC/PI method as explained in materials and methods. In (E) top panel, the bars in each series from left to right are control, 5, 10, and 20, and in (E) bottom panel, the bars in each series from left to right are DMSO, 5, 10, and 20. (F) LNCaP and PC-3 cells were treated with DCEM1 for 24 and 48 hours and lysates were prepared and analyzed for DEVDase activity using specific peptide substrate. In (F), the bars in each series from left to right are DMSO, 5, 10, and 20. (G) LNCaP and PC-3 cells were pre-treated with SKQ1 followed by DCEM1 treatment and analyzed for cell viability by MTT assay. (H) LNCaP and PC-3 cells were treated with either DCEM1 or H2O2 (200 μM) for 24 hours and total DNA were isolated and analyzed for mtDNA damage as described in materials and methods.\nFIG. 7. […] (A) LNCaP and PC-3 cells were pre-treated with either rotenone or antimycin-A followed by DCEM1 treatment and mitochondrial ROS was analyzed as described in material and methods (data represented as fold change compared to control). In (A), the bars in each series from left to right are control, DCEM1, Rot+DCEM1, Anti A+DCEM1, Rot, and Anti A (B) ClpP protein was over-expressed in LNCaP and PC-3 cells followed by DCEM1 treatment and mitochondrial ROS was analyzed as described in material and methods (Data represented as fold change compared to control). […]"}}}
{"smiles": "CCOc1cc(CNCc2nc3ccccc3[nH]2)ccc1OCc1cccs1", "note": "[DCEM1]", "values": [{"measurement": "mitoROS and mitoMass in TKO PCa cells", "setting": "TKO PCa cells; cells established from TKO mouse prostate tumor tissue", "result": "induced mitoROS and mitoMass"}, {"measurement": "apoptotic cell death in TKO PCa cells", "setting": "TKO PCa cells", "result": "induced robust apoptotic cell death"}, {"measurement": "mitochondrial chaperonin activity", "setting": "[1]", "result": "did not modulate"}, {"measurement": "colony forming ability of PCa cells", "setting": "PCa cells", "result": "inhibited"}, {"measurement": "nuclear encoded subunits of OXPHOS Complexes", "setting": "PC-3 cells", "result": "downregulation of nuclear encoded subunits of OXPHOS Complexes"}, {"measurement": "DCEM1-induced mitoROS production and DEVDase activity with ClpP overexpression", "setting": "LNCaP and PC-3 cells; ClpP over-expressed in LNCaP and PC-3 cells followed by DCEM1", "result": "inhibited"}, {"measurement": "mitoROS levels", "setting": "LNCaP and PC-3 cells; LNCaP and PC-3 cells, 24 hours", "result": "mitoROS upregulation"}, {"measurement": "DCEM1-induced mitoROS production with inhibition of Complex I or III", "setting": "LNCaP and PC-3 cells; pre-treated with rotenone or antimycin-A followed by DCEM1", "result": "not attenuated"}]}
